From patent publication US9409870B2, “Compounds” (CHIESI FARMACEUTICI S.p.A., priority 2014, dated 2016)

The compounds below were run against T1, human neutrophil elastase (HNE) (Homo sapiens, UniProt P08246) (assay: HNE enzyme activity assay (fluorogenic peptide substrate MeOSuc-Ala-Ala-Pro-Val-AMC)). Conditions: human leukocyte elastase 0.00072 U/mL, substrate 100 μM, 25° C., 30 minutes, pH 7.5; at least two separate experiments; read-out: FINE inhibition (HNE enzyme inhibition, IC50 values).
T1 construct: purchased Sigma E8140
T1 sequence (P08246 30-247 limits assumed): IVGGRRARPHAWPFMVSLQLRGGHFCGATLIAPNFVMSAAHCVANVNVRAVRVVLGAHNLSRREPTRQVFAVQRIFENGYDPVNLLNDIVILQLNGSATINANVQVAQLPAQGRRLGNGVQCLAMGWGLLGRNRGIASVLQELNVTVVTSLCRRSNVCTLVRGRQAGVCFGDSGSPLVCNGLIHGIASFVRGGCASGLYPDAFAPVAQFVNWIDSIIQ
Format: biochemical
Procedure: Compounds of this invention were tested for potency in a human neutrophil elastase (HNE) enzyme activity assay.
Assays were performed in 96-well plates in a total assay volume of 100 μL. The final concentration of elastase enzyme (human leukocyte elastase, Sigma E8140) was 0.00072 U/mL. The peptide substrate (MeOSuc-Ala-Ala-Pro-Val-AMC, Calbiochem #324740) was used at a final concentration of 100 μM. The final concentration of DMSO was 1% in the assay buffer (0.05M Tris.HCl, 0.1M NaCl, 0.1M CaCl2, 0.0005% brij-35, pH 7.5). The enzymatic reaction was started by addition of the enzyme and incubated at 25° C. for 30 minutes. After incubation, the reaction was stopped by addition of soybean trypsin inhibitor (Sigma T9003) at a final concentration of 50 μg/well. Fluorescence was measured using a Molecular Devices fluorescence plate reader using 380 nm excitation and 460 nm emission wavelengths.
A dose response to each compound was performed and the effect of compound in each experiment was expressed as a percentage inhibition of the control enzyme fluorescence. Dose response curves were plotted and compound potency (IC50) was determined. Compounds were tested in at least two separate experiments.
`COC(=O)n1c(-c2ccnn2-c2ccc(C#N)cc2)c(C)n(-c2cccc(C(F)(F)F)c2)c1=O` [Example 18, Methyl-5-[1-(4-cyanophenyl)-1H-pyrazol-5-yl]-4-methyl-2-oxo-3-[3-(trifluoromethyl)phenyl]-2,3-dihydro-1H-imidazole-1-carboxylate] was tested, and the IC50 was less than 1 nM. `CCCCn1c(-c2ccnn2-c2ccc(C#N)cc2)c(C)n(-c2cccc(C(F)(F)F)c2)c1=O` [Example 26, 4-(5-{3-Butyl-5-methyl-2-oxo-1-[3-(trifluoromethyl)phenyl]-2,3-dihydro-1H-imidazol-4-yl}-1H-pyrazol-1-yl)benzonitrile] gave an IC50 of 1 to 10 nM. For `Cc1c(-c2ccnn2-c2ccc(C#N)cc2)n(C(=O)NCCC[N+](C)(C)C)c(=O)n1-c1cccc(C(F)(F)F)c1` [Example 24, Benzenesulfonate 3-[({5-[1-(4-cyanophenyl)-1H-pyrazol-5-yl]-4-methyl-2-oxo-3-[3-(trifluoromethyl)phenyl]-2,3-dihydro-1H-imidazol-1-yl}carbonyl)amino]-N,N,N-trimethylpropan-1-aminium], the IC50 was 1 to 10 nM. `CCN(C)C(=O)n1c(-c2ccnn2-c2ccc(C#N)cc2)c(C)n(-c2cccc(C(F)(F)F)c2)c1=O` [Example 21, 5-[1-(4-Cyanophenyl)-1H-pyrazol-5-yl]-N-ethyl-N,4-dimethyl-2-oxo-3-[3-(trifluoromethyl)phenyl]-2,3-dihydro-1H-imidazole-1-carboxamide] showed an IC50 of 10 to 50 nM. In the case of `Cc1c(-c2ccnn2-c2ccc(C#N)cc2)n(C(=O)N[C@H]2CCOC2)c(=O)n1-c1cccc(C(F)(F)F)c1` [Example 15, 5-[1-(4-Cyanophenyl)-1H-pyrazol-5-yl]-4-methyl-2-oxo-N-[(3S)-tetrahydrfuran-3-yl]-3-[3-(trifluoromethyl)phenyl]-2,3-dihydro-1H-imidazole-1-carboxamide], the IC50 is reported as less than 1 nM. In the case of `Cc1c(-c2ccnn2-c2ccc(C#N)cc2)n(C(=O)NCCS(C)(=O)=O)c(=O)n1-c1cccc(C(F)(F)F)c1` [Example 13, 5-[1-(4-Cyanophenyl)-1H-pyrazol-5-yl]-4-methyl-N-[2-(methylsulfonyl)ethyl]-2-oxo-3-[3-(trifluoromethyl)phenyl]-2,3-dihydro-1H-imidazole-1-carboxamide], the IC50 is reported as less than 1 nM. In the case of `CCS(=O)(=O)N1CCC(NC(=O)n2c(-c3ccnn3-c3ccc(C#N)cc3)c(C)n(-c3cccc(C(F)(F)F)c3)c2=O)CC1` [Example 43, 5-[2-(4-Cyano-phenyl)-2H-pyrazol-3-yl]-4-methyl-2-oxo-3-(3-trifluoromethyl-phenyl)-2,3-dihydro-imidazole-1-carboxylic acid (1-ethanesulfonyl-piperidin-4-yl)-amide], the IC50 is reported as less than 1 nM. Work on `CCCS(=O)(=O)n1c(-c2ccnn2-c2ccc(C#N)cc2)c(C)n(-c2cccc(C(F)(F)F)c2)c1=O` [Example 31, 4-{5-[5-Methyl-2-oxo-3-(propane-1-sulfonyl)-1-(3-trifluoromethyl-phenyl)-2,3-dihydro-1H-imidazol-4-yl]-pyrazol-1-yl}-benzonitrile] yielded an IC50 of 1 to 10 nM. `Cc1c(-c2ccnn2-c2ccc(C#N)cc2)n(C(=O)NCC2CCN(C)CC2)c(=O)n1-c1cccc(C(F)(F)F)c1` [Example 54, 5-[2-(4-Cyano-phenyl)-2H-pyrazol-3-yl]-4-methyl-2-oxo-3-(3-trifluoromethyl-phenyl)-2,3-dihydro-imidazole-1-carboxylic acid (1-methyl-piperidin-4-ylmethyl)-amide] gave an IC50 of 1 to 10 nM. Compound `CCCCC(=O)n1c(-c2ccnn2-c2ccc(C#N)cc2)c(C)n(-c2cccc(C(F)(F)F)c2)c1=O` [Example 19, 4-(5-{5-Methyl-2-oxo-3-pentanoyl-1-[3-(trifluoromethyl)phenyl]-2,3-dihydro-1H-imidazol-4-yl}-1H-pyrazol-1-yl)benzonitrile] has an IC50 of less than 1 nM. Work on `CNC(=O)Cn1c(-c2ccnn2-c2ccc(C#N)cc2)c(C)n(-c2cccc(C(F)(F)F)c2)c1=O` [Example 23, 2-{5-[1-(4-Cyanophenyl)-1H-pyrazol-5-yl]-4-methyl-2-oxo-3-[3-(trifluoromethyl)phenyl]-2,3-dihydro-1H-imidazol-1-yl}-N-methylacetamide] yielded an IC50 of 10 to 50 nM. With `Cc1c(-c2ccnn2-c2ccc(C#N)cc2)n(CC(=O)N2CCN(C)CC2)c(=O)n1-c1cccc(C(F)(F)F)c1` [Example 38, 4-{5-[5-Methyl-3-[2-(4-methyl-piperazin-1-yl)-2-oxo-ethyl]-2-oxo-1-(3-trifluoromethyl-phenyl)-2,3-dihydro-1H-imidazol-4-yl]-pyrazol-1-yl}-benzonitrile] the IC50 was 1 to 10 nM. Work on `CCCC(=O)n1c(-c2ccnn2-c2ccc(C#N)cc2)c(C)n(-c2cccc(C(F)(F)F)c2)c1=O` [Example 10, 4-(5-{3-Butanoyl-5-methyl-2-oxo-1-[3-(trifluoromethyl)phenyl]-2,3-dihydro-1H-imidazol-4-yl}-1H-pyrazol-1-yl)benzonitrile] yielded an IC50 of less than 1 nM. `Cc1c(-c2ncnn2-c2ccc(C#N)cc2)n(C(=O)NC2CCCC2)c(=O)n1-c1cccc(C(F)(F)F)c1` [Example 63, 5-[2-(4-Cyano-phenyl)-2H-[1,2,4]triazol-3-yl]-4-methyl-2-oxo-3-(3-trifluoromethyl-phenyl)-2,3-dihydro-imidazole-1-carboxylic acid cyclopentylamide] was tested, and the IC50 was less than 1 nM. In the case of `Cc1c(-c2ccnn2-c2ccc(C#N)cc2)n(C(=O)N[C@@H]2COC[C@H]2O)c(=O)n1-c1cccc(C(F)(F)F)c1` (racemic) [Example 48, Mixture of 5-[2-(4-Cyano-phenyl)-2H-pyrazol-3-yl]-4-methyl-2-oxo-3-(3-trifluoromethyl-phenyl)-2,3-dihydro-imidazole-1-carboxylic acid ((3R,4S)-4-hydroxy-tetrahydro-furan-3-yl)-amide and 5-[2-(4-Cyano-phenyl)-2H-pyrazol-3-yl]-4-methyl-2-oxo-3-(3-trifluoromethyl-phenyl)-2,3-dihydro-imidazole-1-carboxylic acid ((3S,4R)-4-hydroxy-tetrahydro-furan-3-yl)-amide], the IC50 is reported as less than 1 nM. Compound `Cc1c(-c2ccnn2-c2ccc(C#N)cc2)n(S(=O)(=O)NC2CCCC2)c(=O)n1-c1cccc(C(F)(F)F)c1` [Example 34, 5-[2-(4-Cyano-phenyl)-2H-pyrazol-3-yl]-4-methyl-2-oxo-3-(3-trifluoromethylphenyl)-2,3-dihydro-imidazole-1-sulfonic acid cyclopentylamide] has an IC50 of less than 1 nM. `Cc1c(-c2ccnn2-c2ccc(C#N)cc2S(C)(=O)=O)[nH]c(=O)n1-c1cccc(C(F)(F)F)c1` [Example 55, 3-Methanesulfonyl-4-{5-[5-methyl-2-oxo-1-(3-trifluoromethyl-phenyl)-2,3-dihydro-1H-imidazol-4-yl]-pyrazol-1-yl}-benzonitrile] gave an IC50 greater than 50 nM. `Cc1c(-c2ccnn2-c2ccc(C#N)cc2)n(C(=O)NC2CCCC2)c(=O)n1-c1cccc(C(F)(F)F)c1` [Example 45, 5-[2-(4-Cyano-phenyl)-2H-pyrazol-3-yl]-4-methyl-2-oxo-3-(3-trifluoromethyl-phenyl)-2,3-dihydro-imidazole-1-carboxylic acid cyclopentylamide] gave an IC50 of less than 1 nM.
